Test results from US20210186978A1, “COMBINATION THERAPY” (TARVEDA THERAPEUTICS, INC., priority 2018, published 2021).

Assays:
[1] = tested on: SSTR2; test: SSTR2 expression by IHC after Vorinostat treatment; format: in vivo, mice bearing NCI-H69 tumors
Experimental: Mice bearing NCI-H69 tumors (small cell lung cancer) were treated with Vorinostat for 10 days IP (q.d.×5). Tumors were collected and processed for SSTR2 expression by IHC.
On Day 6 the IRS score doubled from 6 in the vehicle to 12 in the treated group. The immunoreactive score (IRS) is determined by multiplying the staining intensity in four gradations with the percentage of positive cells in five gradations.

[2] = tested on: NCI-H69 cells; test: Conjugate 1 potency in vitro with and without Vorinostat pre-treatment; format: cell-based
Experimental: In a further study, whether increased SSTR2 expression would result in better delivery of Conjugate 1 to small cell lung cancer cells (NCI-H69) was evaluated. Conjugate 1 potency with Vorinostat pre-treatment was compared with Conjugate 1 potency without Vorinostat pre-treatment. […].

[3] = tested on: NCI-H69 tumors (small cell lung cancer); test: Low doses of Conjugate 1 with Vorinostat, same-day start or pre-treatment, in NCI-H69 model; format: in vivo; settings: mice
Experimental: In a further study with NCI-H69 model (small cell lung cancer), low doses of Conjugate 1 were given to tumor bearing mice and tumor regression was tracked. 1/3 MTD of Conjugate 1 is 0.7 mpk. 1/6 MTD of Conjugate 1 is 0.35 mpk.
Mice bearing NCI-H69 tumors were treated with a combination of Vorinostat and Conjugate 1 starting on the same day or pre-treated with Vorinostat for 4 days IP then administered low doses of Conjugate 1. In total, mice received 10 total doses of Vorinostat (q.d×5) and 2 doses of Conjugate 1 (q.w.×2).
. No significant body weight loss was observed during these studies. […]

[4] = tested on: xenograft models that over-express SSTR2; test: Preclinical single agent studies in xenograft models that over-express SSTR2; format: in vivo; settings: single agent Conjugate 1 treatment
Text: The targeting peptide of Conjugate 1 selectively binds to SSTR2, triggers receptor internalization leading to the accumulation of the DM1 to provide antitumor activity by disrupting microtubule networks causing apoptosis and mitotic catastrophe.

[5] = tested on: NCI-H727 (lung carcinoid) xenograft; test: Conjugate 1 and Vorinostat combination in NCI-H727 xenograft model; format: in vivo, mice; settings: very low SSTR2 (IRS 1)
[6] = Conjugate 1 tumor uptake with Vorinostat pre-treatment; format: in vivo, mice bearing NCI-H69 tumors; settings: Vorinostat pre-treatment vs none; P=0.03
Experimental: In vivo, mice bearing NCI-H69 tumors were pre-treated with Vorinostat then administered Conjugate 1. Tumors were analyzed for Conjugate 1 concentrations.

| Structure (SMILES) | IRS score (SSTR2 expression in tumors) ([1]; NCI-H69 tumors, Day 6, Vorinostat IP q.d.x5, vehicle 6) | SSTR2 expression in normal spleen tissues ([1]; normal spleen after Vorinostat treatment) | NCI-H69 cell proliferation ([2]; Vorinostat alone) | 1/3 MTD [3] [mpk] | 1/6 MTD [3] [mpk] | tumor regression [4] | activity as a single agent [5] | Conjugate 1 concentrations in tumors [6] | Conjugate 1 potency ([2]; with Vorinostat pre-treatment vs without, NCI-H69 cells in vitro) |
| --- | --- | --- | --- | --- | --- | --- | --- | --- | --- |
| O=C(CCCCCCC(=O)Nc1ccccc1)NO [Vorinostat, vorinostat] | 12 | an increase in expression was not observed | no effect |  |  |  |  |  |  |
| COc1cc2cc(c1Cl)N(C)C(=O)C[C@H](OC(=O)[C@H](C)N(C)C(=O)CCSSC[C@H](NC(=O)[C@@H]1CSSC[C@H](NC(=O)[C@H](N)Cc3ccccc3)C(=O)N[C@@H](Cc3ccc(O)cc3)C(=O)N[C@H](Cc3c[nH]c4ccccc34)C(=O)N[C@@H](CCCCN)C(=O)N[C@@H]([C@@H](C)O)C(=O)N1)C(N)=O)C[C@]1(C)O[C@H]1[C@H](C)[C@@H]1C[C@@](O)(NC(=O)O1)[C@H](OC)C/C=C/C=C(\C)C2 [Conjugate 1] |  |  |  | 0.7 | 0.35 | complete and sustained tumor regression | no activity | statistically significant (P=0.03) increase | an increase in Conjugate 1 potency was observed |
